Experimental data reported in patent publication US4127675A, “4-(Alkylamino-2-hydroxypropoxy)-indenes and method of use” (Yamanouchi Pharmaceutical Co., Ltd., priority 1968, dated 1978).
Where two headings read alike, the source gives them in different places.

What was measured:
adrenergic β-receptor [1] = target: T1, adrenergic β-receptor (Cavia porcellus, UniProt H0W3H1); experiment: Antagonism of l-isoproterenol-induced increase of atrial contraction, isolated guinea pig atria (Experiment 1); parameters: species or system male Hartley guinea pig; details: l-isoproterenol 5 × 10^-8 g./ml., 10 minutes previously
T1 construct: The atria obtained from a male Hartley guinea pig; from tissue; host or cells: isolated atria of male Hartley guinea pig
Method: The atria obtained from a male Hartley guinea pig weighing 300-500 g. were trimmed and placed in chambers containing Tyrode solution oxygenated with 95% oxygen and 5% carbon dioxide and maintained at 30° C.
Contractile force was recorded by an isometric lever connected to a strain gauge tension transducer. Antagonistic activity of the tested drugs on the 1-isoproterenol-induced increase of the atrial contraction was investigated.
The first control response was measured adding 1-isoproterenol to the bath fluid to a final concentration of 5 × 10^-8 g./ml. Then the preparation was washed and the same procedure was repeated after application of the drugs to be tested, i.e. 4-(3-isopropylamino-2-hydroxypropoxy)indene and 4-(3-isopropylamino-2-hydroxypropoxy)indane (final concentrations of 8 × 10^-9 g./ml. and 5 × 10^-8 g./ml.), 10 minutes previously.

[2] = system: heart devoid of autonomous nervous control; experiment: Direct effect on heart rate of a heart devoid of autonomous nervous control, reserpinized, adrenalectomized, vagotomized rats (Experiment 2); type: in vivo, Wistar rats; details: for Change of heart rate (%): + increase, - decrease
Method: Experiment 2 […] Both adrenal glands were removed and bilateral vagotomy in the neck was performed. […] (RM 100). In Table 2, the symbol + represents an increase in heart rate, while the symbol - represents a decrease in heart rate. The standard error is shown in parenthesis.

adrenergic β-receptor [3] = target: T2, adrenergic β-receptor (Rattus norvegicus, UniProt P18090); experiment: Blockade of isoproterenol-induced tachycardia in reserpinized, vagotomized rats (Experiment 3); type: in vivo; details: for Res: Response (percent increase of heart rate induced by 0.1 μg/kg l-isoproterenol): i.v., cumulative, Control = 100; for ED50: rat, iv, read-out: ED50 (dose producing 50% blockade of the positive chronotropic control response to l-isoproterenol)
T2 construct: studied in reserpinized, vagotomized rats; from tissue; host or cells: heart in the living, anaesthetized rat (in vivo heart rate)
Method: The effects of certain compounds on isoproterenol-induced tachycardia as well as on resting heart rate were studied in reserpinized, vagotomized rats. The rat was anaesthetized with pentobarbital 18 hours after treatment with reserpine (8 mg./kg., i.p.) and vagotomized bilaterally in the neck. Heart rate was recorded by a cardiotacho-meter (RT-2, Nihonkoden). […] Ten minutes after each dose of the compound an intravenous injection of l-isoproterenol (0.1 μg./kg.) was administered and the increase in heart rate was recorded. The dose producing 50% blockade of the positive chronotropic control response to l-isoproterenol (ED-50) was estimated in each experiment from curves obtained by plotting inhibition percentage against log cumulative dose.

[4] = Acute intravenous toxicity in white mice; details: mouse, in vivo, injected intravenously
resting heart rate = experiment: Effect on resting (basic) heart rate in reserpinized, vagotomized rats (Experiment 3); type: in vivo, rat; details: i.v., cumulative
Method: The effects of certain compounds on isoproterenol-induced tachycardia as well as on resting heart rate were studied in reserpinized, vagotomized rats. The rat was anaesthetized with pentobarbital 18 hours after treatment with reserpine (8 mg./kg., i.p.) and vagotomized bilaterally in the neck. Heart rate was recorded by a cardiotacho-meter (RT-2, Nihonkoden). After the control response to l-isoproterenol (0.1 μg./kg., i.v.) was obtained, each compound tested was injected intravenously in such doses that the cumulative dose increased four-fold: 0.01-0.04-0.16-0.64-2.56 mg./kg., at 20 minute intervals. Ten minutes after each dose of the compound an intravenous injection of l-isoproterenol (0.1 μg./kg.) was administered and the increase in heart rate was recorded. The dose producing 50% blockade of the positive chronotropic control response to l-isoproterenol (ED-50) was estimated in each experiment from curves obtained by plotting inhibition percentage against log cumulative dose.
abbreviations; ^a) BHR : Basic heart rate (the heart rate just before
administration of l-isoproterenol, unit = beat per minute)

[5] = final concentration 5 × 10^-8 g./ml.
[6] = final concentration 8 × 10^-9 g./ml.
[7] = 0.01 mg./kg. i.v., 1 minute after
[8] = 0.01 mg./kg. i.v., 5 minutes after
[9] = 0.01 mg./kg. i.v., 15 minutes after
[10] = 0.01 mg./kg. i.v., 30 minutes after
[11] = 0.05 mg./kg. i.v., 1 minute after
[12] = 0.05 mg./kg. i.v., 5 minutes after
[13] = 0.05 mg./kg. i.v., 15 minutes after
[14] = 0.05 mg./kg. i.v., 30 minutes after
[15] = 0.10 mg./kg. i.v., 1 minute after
[16] = 0.10 mg./kg. i.v., 5 minutes after
[17] = 0.10 mg./kg. i.v., 15 minutes after
[18] = 0.10 mg./kg. i.v., 30 minutes after
[19] = cumulative dose, l-isoproterenol 0.1 μg./kg. i.v., ± standard error

T2 sequence (P18090 whole entry): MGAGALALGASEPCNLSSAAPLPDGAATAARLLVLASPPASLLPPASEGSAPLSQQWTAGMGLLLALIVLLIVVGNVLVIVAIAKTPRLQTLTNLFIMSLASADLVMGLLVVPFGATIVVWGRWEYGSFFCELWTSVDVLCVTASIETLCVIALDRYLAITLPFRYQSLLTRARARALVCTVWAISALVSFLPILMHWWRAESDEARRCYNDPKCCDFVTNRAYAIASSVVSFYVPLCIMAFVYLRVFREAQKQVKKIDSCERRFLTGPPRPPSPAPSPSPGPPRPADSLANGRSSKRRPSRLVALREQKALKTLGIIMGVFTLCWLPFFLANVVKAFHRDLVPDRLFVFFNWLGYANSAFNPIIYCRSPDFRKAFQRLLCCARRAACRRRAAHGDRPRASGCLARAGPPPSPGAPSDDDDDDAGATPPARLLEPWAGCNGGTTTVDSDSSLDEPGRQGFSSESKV
T1 sequence (H0W3H1 1-470): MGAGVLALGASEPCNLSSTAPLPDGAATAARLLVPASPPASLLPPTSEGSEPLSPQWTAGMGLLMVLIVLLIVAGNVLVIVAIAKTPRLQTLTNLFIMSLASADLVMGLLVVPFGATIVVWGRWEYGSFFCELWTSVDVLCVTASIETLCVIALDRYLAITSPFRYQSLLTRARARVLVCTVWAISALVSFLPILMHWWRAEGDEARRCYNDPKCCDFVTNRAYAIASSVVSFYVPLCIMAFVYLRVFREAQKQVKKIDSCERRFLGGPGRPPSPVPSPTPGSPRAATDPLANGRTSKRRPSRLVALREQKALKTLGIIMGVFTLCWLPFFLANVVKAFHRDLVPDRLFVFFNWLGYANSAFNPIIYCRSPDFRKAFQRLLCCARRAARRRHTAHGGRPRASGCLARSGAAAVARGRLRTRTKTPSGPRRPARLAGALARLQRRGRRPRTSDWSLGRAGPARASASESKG

Compound: CC(C)NCC(O)COc1cccc2c1C=CC2 (racemic) [4-(3-isopropylamino-2-hydroxypropoxy)indene]
- Inhibition rate (%) (adrenergic β-receptor [1]; [5]): 81.5%
- Inhibition rate (%) (adrenergic β-receptor [1]; [6]): 30.7%
- Change of heart rate (%) [2, 7]: +2.4%
- Change of heart rate (%) [2, 8]: +3.8%
- Change of heart rate (%) [2, 9]: +3.2%
- Change of heart rate (%) [2, 10]: +1.7%
- Change of heart rate (%) [2, 11]: +5.6%
- Change of heart rate (%) [2, 12]: +8.4%
- Change of heart rate (%) [2, 13]: +8.7%
- Change of heart rate (%) [2, 14]: +5.2%
- Change of heart rate (%) [2, 15]: +1.5%
- Change of heart rate (%) [2, 16]: +4.1%
- Change of heart rate (%) [2, 17]: +3.5%
- Change of heart rate (%) [2, 18]: +4.0%
- Res: Response (percent increase of heart rate induced by 0.1 μg/kg l-isoproterenol) (adrenergic β-receptor [3]; 0.01 mg/kg): 74±3%
- Res: Response (percent increase of heart rate induced by 0.1 μg/kg l-isoproterenol) (adrenergic β-receptor [3]; 0.04 mg/kg): 50±2%
- Res: Response (percent increase of heart rate induced by 0.1 μg/kg l-isoproterenol) (adrenergic β-receptor [3]; 0.16 mg/kg): 23±2%
- Res: Response (percent increase of heart rate induced by 0.1 μg/kg l-isoproterenol) (adrenergic β-receptor [3]; 0.64 mg/kg): 5±1%
- ED50 (adrenergic β-receptor [3]; [19]): 0.039 ± 0.002 mg/kg
- LD50 [4]: 25 mg/kg
- BHR: Basic heart rate (just before administration of l-isoproterenol) (resting heart rate; 0.01 mg/kg): 235±12 beat per minute
- BHR: Basic heart rate (just before administration of l-isoproterenol) (resting heart rate; 0.04 mg/kg): 246±13 beat per minute
- BHR: Basic heart rate (just before administration of l-isoproterenol) (resting heart rate; 0.16 mg/kg): 245±14 beat per minute
- BHR: Basic heart rate (just before administration of l-isoproterenol) (resting heart rate; 0.64 mg/kg): 245±12 beat per minute

Compound: CC(C)NCC(O)COc1cccc2c1CCC2 (stereo not drawn) [4-(3-isopropylamino-2-hydroxypropoxy)indane]
- Inhibition rate (%) (adrenergic β-receptor [1]; [5]): 88.4%
- Inhibition rate (%) (adrenergic β-receptor [1]; [6]): 30.4%
- Change of heart rate (%) [2, 7]: -0.9%
- Change of heart rate (%) [2, 8]: +0.3%
- Change of heart rate (%) [2, 9]: -1.9%
- Change of heart rate (%) [2, 10]: -1.7%
- Change of heart rate (%) [2, 11]: -2.1%
- Change of heart rate (%) [2, 12]: -2.0%
- Change of heart rate (%) [2, 13]: -2.0%
- Change of heart rate (%) [2, 14]: -4.6%
- Change of heart rate (%) [2, 15]: -5.9%
- Change of heart rate (%) [2, 16]: -8.7%
- Change of heart rate (%) [2, 17]: -8.7%
- Change of heart rate (%) [2, 18]: -5.4%
- effect on the cardiac function (in words) ([2]; Experiment 2): deleterious effects on the cardiac function
- Res: Response (percent increase of heart rate induced by 0.1 μg/kg l-isoproterenol) (adrenergic β-receptor [3]; 0.04 mg/kg): 54±5%
- Res: Response (percent increase of heart rate induced by 0.1 μg/kg l-isoproterenol) (adrenergic β-receptor [3]; 0.16 mg/kg): 33±14%
- Res: Response (percent increase of heart rate induced by 0.1 μg/kg l-isoproterenol) (adrenergic β-receptor [3]; 0.64 mg/kg): 12±1%
- ED50 (adrenergic β-receptor [3]; [19]): 0.065 ± 0.013 mg/kg
- BHR: Basic heart rate (just before administration of l-isoproterenol) (resting heart rate; 0.04 mg/kg): 245±15 beat per minute
- BHR: Basic heart rate (just before administration of l-isoproterenol) (resting heart rate; 0.16 mg/kg): 236±14 beat per minute
- BHR: Basic heart rate (just before administration of l-isoproterenol) (resting heart rate; 0.64 mg/kg): 238±17 beat per minute

Compound: CCC(C)NCC(O)COc1cccc2c1C=CC2 (stereo not drawn) [4-(3-sec-butylamino-2-hydroxypropoxy)indene]
- Res: Response (percent increase of heart rate induced by 0.1 μg/kg l-isoproterenol) (adrenergic β-receptor [3]; 0.01 mg/kg): 81±4%
- Res: Response (percent increase of heart rate induced by 0.1 μg/kg l-isoproterenol) (adrenergic β-receptor [3]; 0.04 mg/kg): 65±1%
- Res: Response (percent increase of heart rate induced by 0.1 μg/kg l-isoproterenol) (adrenergic β-receptor [3]; 0.16 mg/kg): 40±5%
- Res: Response (percent increase of heart rate induced by 0.1 μg/kg l-isoproterenol) (adrenergic β-receptor [3]; 0.64 mg/kg): 17±3%
- Res: Response (percent increase of heart rate induced by 0.1 μg/kg l-isoproterenol) (adrenergic β-receptor [3]; 2.56 mg/kg): 6±1%
- ED50 (adrenergic β-receptor [3]; [19]): 0.088 ± 0.011 mg/kg
- BHR: Basic heart rate (just before administration of l-isoproterenol) (resting heart rate; 0.01 mg/kg): 200±13 beat per minute
- BHR: Basic heart rate (just before administration of l-isoproterenol) (resting heart rate; 0.04 mg/kg): 218±13 beat per minute
- BHR: Basic heart rate (just before administration of l-isoproterenol) (resting heart rate; 0.16 mg/kg): 225±14 beat per minute
- BHR: Basic heart rate (just before administration of l-isoproterenol) (resting heart rate; 0.64 mg/kg): 236±16 beat per minute
- BHR: Basic heart rate (just before administration of l-isoproterenol) (resting heart rate; 2.56 mg/kg): 228±23 beat per minute

Compound: C=CCc1ccccc1OCC(O)CNC(C)C (stereo not drawn) [alprenolol (Aptin), alprenolol, reference compound]
- Res: Response (percent increase of heart rate induced by 0.1 μg/kg l-isoproterenol) (adrenergic β-receptor [3]; 0.01 mg/kg): 65±3%
- Res: Response (percent increase of heart rate induced by 0.1 μg/kg l-isoproterenol) (adrenergic β-receptor [3]; 0.04 mg/kg): 44±3%
- Res: Response (percent increase of heart rate induced by 0.1 μg/kg l-isoproterenol) (adrenergic β-receptor [3]; 0.16 mg/kg): 17±3%
- Res: Response (percent increase of heart rate induced by 0.1 μg/kg l-isoproterenol) (adrenergic β-receptor [3]; 0.64 mg/kg): 3±1%
- ED50 (adrenergic β-receptor [3]): 0.03 ± 0.003 mg/kg
- BHR: Basic heart rate (just before administration of l-isoproterenol) (resting heart rate; 0.01 mg/kg): 233±12 beat per minute
- BHR: Basic heart rate (just before administration of l-isoproterenol) (resting heart rate; 0.04 mg/kg): 247±11 beat per minute
- BHR: Basic heart rate (just before administration of l-isoproterenol) (resting heart rate; 0.16 mg/kg): 261±7 beat per minute
- BHR: Basic heart rate (just before administration of l-isoproterenol) (resting heart rate; 0.64 mg/kg): 262±4 beat per minute
